Experimental data taken from patent publication US12281304B2, “Compositions and methods for treating and preventing muscular disorders and dystrophies, steroid side effects, and inflammation” (Children's National Medical Center, priority 2018, dated 2025).

Test system: miRNAs in diaphragm muscle of mdx mice
Assay: TaqMan low-density array (TLDA) miRNA profiling of diaphragm, discovery set (prophylactic mdx trial)
Type: in vivo, mouse
Conditions: mdx diaphragm, vs untreated mdx; Pred 5 mg/kg, Vam 15 mg/kg
Excerpt: Archival muscle samples (diaphragm) from two separate preclinical studies were obtained, with each trial showing a significant benefit from both prednisolone and vamorolone drug treatments (23). Prednisolone was used because it is the active form of prednisone, the current DMD standard of care. The first, “discovery set” of diaphragm muscles was from a prophylactic trial design where 2-week old (postnatal day 15) mdx or wild type control mice received oral dosing for 6 weeks with vehicle (cherry syrup), prednisolone (5 mg/kg), or vamorolone (15 mg/kg) as previously reported (23). The second, “validation set” of diaphragm muscles was from an extended trial in older mice where mdx or wild type mice were subjected to treadmill running to unmask mild phenotypes. Mice in this validation set were treated with either vehicle, prednisolone (5 mg/kg) or vamorolone (45 mg/kg) for four months beginning at two months of age (23). At the endpoint of each trial, diaphragm muscles were harvested and frozen in liquid nitrogen-cooled isopentane.
We extracted total RNA from 5 diaphragm muscles per treatment group in the discovery set of samples from 8-week old mice. RNA was extracted using a modified TRIzol protocol with isopropanol precipitation at −20° C. overnight. This RNA was reverse transcribed to cDNA using a High Capacity cDNA Reverse Transcription Kit with RNase Inhibitor (ThermoFisher; Carlsbad, Calif.), with miRNA-specific Megaplex RT Primers, Rodent Pools Set version 3.0 (ThermoFisher; Carlsbad, Calif.). Levels of each of the miRNAs were profiled in the discovery set using TAQMAN Array Rodent MiRNA A+B Cards Set v3.0 (ThermoFisher; Carlsbad, Calif.).
In the discovery set experiments, levels of each miRNA were quantified in TaqMan low-density arrays using ThermoFisher Cloud software with the Relative Quantification Application (ThermoFisher; Carlsbad, Calif.) tool. Data was analyzed by ANOVA with post-hoc comparison of each group to the mdx vehicle-treated group. […] A P-value of P≤0.05 was set as the significance threshold, without adjustment for multiple comparisons. To reduce false-positive discovery in this setting, an evidence-based approach was used to identify efficacy associated miRNAs where 1) results from the multiple groups were cross-referenced, and 2) all candidate miRNAs identified in this discovery set were then assayed in a separate validation set of mice. For the validation set experiments, levels of each individual miRNA were assayed in samples from a second, independent preclinical trial in adult mdx mice. Data from individual TaqMan Assays was quantified using QuantStudio Real-Time PCR version 1.3 software (Applied Biosystems; Foster City, Calif.). The levels of all miRNAs were normalized to the geometric mean of multiple control genes (60, 70). Comparison of groups was made by ANOVA with Holm-Sidak post-hoc test comparing each group to mdx vehicle.
To visualize behavior of miRNAs within individual mice for each group, heat map images were generated. Heat maps were generated using Rq values of TLDA array data exported from the Relative Quantification Application of the ThermoFisher Cloud software (ThermoFisher; Carlsbad, Calif.) tool. Heat maps of miRNA expression were produced using Hierarchical Clustering Explorer Version 3.5 (at www.cs.umd.edu/hcil/multi-cluster/) produced by the Human Computer Interaction Laboratory (University of Maryland; College Park, Md.).
To examine miRNA expression TaqMan low density qPCR array cards were used to profile approximately 750 miRNAs within diaphragm muscle from a discovery set of mice. Samples for this experiment came from a trial that utilized a prophylactic approach (23). Briefly, mdx mice undergo a stage of peak severity characterized by widespread inflammation and necrosis from approximately 3-8 weeks of age, followed by a recovery stage where mice show milder phenotypes (25). […]

For `C[C@@H]1C[C@H]2[C@@H]3CCC4=CC(=O)C=C[C@]4(C)C3=CC[C@]2(C)[C@@]1(O)C(=O)CO` [vamorolone], the “Rq mmu-miR-215-001200” value was 0.495, the “Rq mmu-miR-218-000521” value was 0.759 and the “Rq mmu-miR-221-000524” value was 0.674. For the same compound, the “Rq mmu-miR-222-002276” value was 0.733, the “Rq mmu-miR-223-002295” value was 0.78 and the “Rq mmu-miR-296-5p-000527” value was 0.882. For the same compound, the “Rq mmu-miR-301a-000528” value was 0.77, the “Rq mmu-miR-301b-002600” value was 0.917 and the “Rq mmu-miR-322-001076” value was 0.785. For the same compound, the “Rq mmu-miR-324-3p-002509” value was 0.748, the “Rq mmu-miR-324-5p-000539” value was 0.946 and the “Rq mmu-miR-328-000543” value was 0.858. For the same compound, the “Rq mmu-miR-335-3p-002185” value was 1.249, the “Rq mmu-miR-335-5p-000546” value was 0.76 and the “Rq mmu-miR-337-3p-002532” value was 1.078. The “Rq mmu-miR-338-3p-002252” value was 0.689, the “Rq mmu-miR-339-5p-002257” value was 0.929 and the “Rq mmu-miR-340-3p-002259” value was 0.75. For the same compound, the “Rq mmu-miR-340-5p-002258” value was 0.726, the “Rq mmu-miR-342-3p-002260” value was 0.677 and the “Rq mmu-miR-342-5p-002527” value was 0.644. For the same compound, the “Rq mmu-miR-345-5p-002528” value was 0.808, the “Rq mmu-miR-350-002530” value was 0.797 and the “Rq mmu-miR-362-3p-002616” value was 0.902. For the same compound, the “Rq mmu-miR-362-5p-002614” value was 1.469, the “Rq mmu-miR-369-3p-000557” value was 0.963 and the “Rq mmu-miR-369-5p-001021” value was 1.023. The “Rq mmu-miR-370-002275” value was 1.146, the “Rq mmu-miR-376a#-002482” value was 0.985 and the “Rq mmu-miR-376a-001069” value was 0.991. The “Rq mmu-miR-376b#-002451” value was 0.717, the “Rq mmu-miR-376b-002452” value was 1.153 and the “Rq mmu-miR-376c-002450” value was 0.931. For the same compound, the “Rq mmu-miR-379-001138” value was 0.987, the “Rq mmu-miR-380-5p-002601” value was 1.243 and the “Rq mmu-miR-381-000571” value was 1.288. The “Rq mmu-miR-382-000572” value was 1.081, the “Rq mmu-miR-383-001767” value was 0.272 and the “Rq mmu-miR-384-5p-002602” value was 0.727. The “Rq mmu-miR-409-3p-002332” value was 1.266, the “Rq mmu-miR-410-001274” value was 1.158 and the “Rq mmu-miR-411-001610” value was 1.083. The “Rq mmu-miR-431-001979” value was 1.358, the “Rq mmu-miR-433-001028” value was 1.407 and the “Rq mmu-miR-434-5p-002581” value was 1.208. For the same compound, the “Rq mmu-miR-450a-5p-002303” value was 0.862, the “Rq mmu-miR-455-002455” value was 0.607 and the “Rq mmu-miR-467F-002886” value was 0.581. The “Rq mmu-miR-467a-002587” value was 0.763, the “Rq mmu-miR-467c-002517” value was 0.844 and the “Rq mmu-miR-483#-002560” value was 1.386. For the same compound, the “Rq mmu-miR-486-001278” value was 0.988, the “Rq mmu-miR-487b-001285” value was 1.133 and the “Rq mmu-miR-489-001302” value was 0.942. The “Rq mmu-miR-491-001630” value was 0.842, the “Rq mmu-miR-493-002519” value was 1.057 and the “Rq mmu-miR-494-002365” value was 0.988. For the same compound, the “Rq mmu-miR-495-001663” value was 0.897, the “Rq mmu-miR-497-001346” value was 0.652 and the “Rq mmu-miR-500-002606” value was 0.878. For the same compound, the “Rq mmu-miR-501-3p-001651” value was 1.158, the “Rq mmu-miR-503-002456” value was 1.115 and the “Rq mmu-miR-511-002549” value was 0.477. For the same compound, the “Rq mmu-miR-532-3p-002355” value was 1.069, the “Rq mmu-miR-532-5p-001518” value was 1.043 and the “Rq mmu-miR-540-3p-001310” value was 0.746. For the same compound, the “Rq mmu-miR-541-002562” value was 1.043, the “Rq mmu-miR-542-3p-001284” value was 0.82 and the “Rq mmu-miR-542-5p-002563” value was 1.044. For the same compound, the “Rq mmu-miR-543-001298” value was 1.176, the “Rq mmu-miR-543-002376” value was 0.918 and the “Rq mmu-miR-544-002550” value was 0.952. For the same compound, the “Rq mmu-miR-574-3p-002349” value was 0.692, the “Rq mmu-miR-652-002352” value was 0.636 and the “Rq mmu-miR-665-002607” value was 1.203. The “Rq mmu-miR-669a-001683” value was 0.551, the “Rq mmu-miR-673-3p-002449” value was 1.148 and the “Rq mmu-miR-673-001954” value was 1.475. For the same compound, the “Rq mmu-miR-674#-001956” value was 0.765, the “Rq mmu-miR-674-002021” value was 0.892 and the “Rq mmu-miR-675-3p-001941” value was 1.14. For the same compound, the “Rq mmu-miR-682-001666” value was 0.675, the “Rq mmu-miR-690-001677” value was 0.861 and the “Rq mmu-miR-706-001641” value was 0.664. The “Rq mmu-miR-708-002341” value was 0.51, the “Rq mmu-miR-720-001629” value was 0.957 and the “Rq mmu-miR-802-002029” value was 0.126. The “Rq mmu-miR-805-002045” value was 1.128, the “Rq mmu-miR-1274a-121150_mat” value was 1.244 and the “Rq mmu-miR-1941-3p-121130_mat” value was 1.459. For the same compound, the “Rq mmu-miR-1943-121174_mat” value was 1.268, the “Rq mmu-miR-1944-121189_mat” value was 1.023 and the “Rq mmu-miR-2146-241082_mat” value was 0.413. The “Rq mmu-miR-30d-000420” value was 0.829, the “Rq rno-miR-1-002064” value was 0.956 and the “Rq rno-miR-7#-001338” value was 0.799. The “Rq rno-miR-7a#-002062” value was 0.887, the “Rq rno-miR-20b-001326” value was 0.711 and the “Rq rno-miR-29c#-001818” value was 0.93. The “Rq rno-miR-204#-002076” value was 0.813, the “Rq rno-miR-224-000599” value was 0.837 and the “Rq rno-miR-345-3p-002061” value was 0.999. For the same compound, the “Rq rno-miR-351-002063” value was 1.376, the “Rq rno-miR-379#-002081” value was 1.014 and the “Rq rno-miR-381-001322” value was 1.013. The “Rq rno-miR-489-001353” value was 0.844 and the “Rq rno-miR-664-001323” value was 0.771.
